From patent publication US20180179574A1, “SYSTEMS AND METHODS FOR CHARACTERIZATION OF […]” (The University of Chicago, priority 2015, published 2018)

Assays:
HepG2 = assay: Lipase assay with live cells (HepG2), fluorogenic TG substrate; assay type: cell-based; details: HepG2 cells washed with heparin
Description: FIG. 2. The lipase assay is non-toxic and detects enzyme activity with live cells. The removal of the reaction mix from the cells (HepG2) stops substrate hydrolysis but is reinitiated once added back to the same cells (A).
Experiments were conducted during development of embodiments of the present invention using an in vitro assay that utilizes bovine milk LpL (SIGMA) diluted to ˜120 ng/ml in Tris-HCl, 0.15M NaCl (TBS), 1%(w/v) BSA, 0.015%(w/v) Zwittergent 3-14, pH 7.8+1 μM to 25 μM ENZCHEK substrate, prepared in black polypropylene microplates. In some embodiments, the lipase reaction is performed at room temperature or 37° C. for 10 min to 60 min. Detection of product is performed with a fluorescent plate reader using excitation/emission wavelengths of 482 nm and 515 nm. The assay is sensitive to fmol/L of LpL (130% gain on reader) (FIG. 6C) and product accumulation increases linearly with increasing enzyme concentrations (FIG. 1A). The absolute product concentration is proportional to the relative fluorescence units (RFU) and can be calculated using BODIPY-C12 fatty acid (D3823, Life Technologies Inc.) as a standard and allows the determination of reaction rates (i.e. ng/ml/min) and Michaelis-Menten kinetic parameters. […] Furthermore, the mild nature of the assay formulation allows LpL activity to be determined with live cells in cell culture or isolated cells (FIG. 2).

Leukocyte-LpL = biological target: T1, Leukocyte-LpL (Homo sapiens, UniProt P06858); assay: Leukocyte LpL hydrolytic potential / lipase response to stimulation assay (fluorogenic ENZCHEK TG substrate); assay type: cell-based; details: leukocytes washed with heparin removing surface LpL
T1 construct: analyze the activity of endogenous cell-associated LpL from a blood sample; host or cells: primary leukocytes (buffy coat) from fresh whole blood
T1 sequence (P06858 28-475): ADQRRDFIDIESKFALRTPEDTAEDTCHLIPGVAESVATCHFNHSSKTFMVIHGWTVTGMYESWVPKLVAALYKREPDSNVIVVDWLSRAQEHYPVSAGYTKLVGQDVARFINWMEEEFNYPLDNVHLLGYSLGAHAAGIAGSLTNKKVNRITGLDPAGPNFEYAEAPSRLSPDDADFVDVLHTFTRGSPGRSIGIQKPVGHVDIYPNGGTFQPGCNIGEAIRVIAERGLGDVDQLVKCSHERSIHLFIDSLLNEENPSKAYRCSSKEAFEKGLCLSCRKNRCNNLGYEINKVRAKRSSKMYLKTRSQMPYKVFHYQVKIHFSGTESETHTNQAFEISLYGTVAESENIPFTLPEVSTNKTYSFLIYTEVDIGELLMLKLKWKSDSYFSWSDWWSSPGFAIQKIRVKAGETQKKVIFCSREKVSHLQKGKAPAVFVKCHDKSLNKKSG
Description: FIG. 6. Leukocyte-LpL activity is detectible and responsive to C-II51-79 and AV199-232 peptide stimulation. Leukocytes (buffy coat) was collected by centrifugation of fresh whole blood from healthy donors (Zen Bio Inc.), rinsed and then incubated with LpL reaction mix (A, B). Leukocytes were also incubated with […] CII51-79 and/or AV199-232 (A). […] Increasing fluorescent plate reader gain can increase sensitivity to low femto molar range (C).
Experiments were conducted during development of embodiments of the present invention using an in vitro assay that utilizes bovine milk LpL (SIGMA) diluted to ˜120 ng/ml in Tris-HCl, 0.15M NaCl (TBS), 1%(w/v) BSA, 0.015%(w/v) Zwittergent 3-14, pH 7.8+1 μM to 25 μM ENZCHEK substrate, prepared in black polypropylene microplates. […] Detection of product is performed with a fluorescent plate reader using excitation/emission wavelengths of 482 nm and 515 nm. The assay is sensitive to fmol/L of LpL (130% gain on reader) (FIG. 6C) and product accumulation increases linearly with increasing enzyme concentrations (FIG. 1A). The absolute product concentration is proportional to the relative fluorescence units (RFU) and can be calculated using BODIPY-C12 fatty acid (D3823, Life Technologies Inc.) as a standard and allows the determination of reaction rates (i.e. ng/ml/min) and Michaelis-Menten kinetic parameters. […]

Substance: heparin
- Substrate hydrolysis by live cells after washing cells with heparin (HepG2): inhibits substrate hydrolysis
- Leukocyte substrate hydrolysis after washing cells with heparin (Leukocyte-LpL): substrate hydrolysis was lost
